Test results from PMC8820820, “Feasibility and safety of targeting mitochondria for cancer therapy – preclinical characterization of gamitrinib, a first-in-class, mitochondriaL-targeted small molecule Hsp90 inhibitor” (Cancer Biology & Therapy, 2022).
Read-outs that look alike come from different tables or passages of the source.

Columns and labels:
Caco-2 intestinal cells = test: Bidirectional Caco2 cell monolayer permeability; details: Caco-2
Description: Caco-2 and HEK293 cells were obtained from the American Type Culture Collection (ATCC, Manassas, VA) and grown in culture according to the supplier’s specifications. In some experiments, HEK293 cells were stably transfected with hERG cDNA, and polyclonal cultures were maintained in the presence of 250 µg/ml geneticin (G418).
Bidirectional Caco2 cell monolayer permeability. Caco2 cells (2x10^4/well) were seeded onto apical chambers of a 24-multiwell insert plate and incubated at 37°C in 5% CO2. After 21 d, the transepithelial electrical resistance (TEER) in ohms was read for each insert well as a quality control for monolayer integrity (>900 ohms or 300 ohms cm^2). The cell monolayers were incubated with 400 µL transport buffer on the apical (A) and 1.2 mL on the basolateral (B) sides for 30 min. After preincubation, dosing solution was added to the apical (400 µL, A-to-B, donor) or basolateral sides (1.2 mL, B-to-A, donor) or receiving buffer to the apical (400 µL, B-to-A, receiver) or basolateral sides (1.2 mL, A-to-B, receiver) for 90 min at 37°C in 5% CO2. […] Papp’A>B (nm/s) was calculated with Equation 1.
Papp Efflux Ratio (ER) was calculated with Equation 2.
ER=Papp,B>APapp,A>BEquation 2: […]
Propranolol (high permeability marker, non-P-gp substate) and digoxin (P-gp substrate) were used as controls.

CYP2B6 = target: T1, CYP2B6 (Homo sapiens, UniProt P20813); details: microsomes
T1 sequence (P20813 1-491): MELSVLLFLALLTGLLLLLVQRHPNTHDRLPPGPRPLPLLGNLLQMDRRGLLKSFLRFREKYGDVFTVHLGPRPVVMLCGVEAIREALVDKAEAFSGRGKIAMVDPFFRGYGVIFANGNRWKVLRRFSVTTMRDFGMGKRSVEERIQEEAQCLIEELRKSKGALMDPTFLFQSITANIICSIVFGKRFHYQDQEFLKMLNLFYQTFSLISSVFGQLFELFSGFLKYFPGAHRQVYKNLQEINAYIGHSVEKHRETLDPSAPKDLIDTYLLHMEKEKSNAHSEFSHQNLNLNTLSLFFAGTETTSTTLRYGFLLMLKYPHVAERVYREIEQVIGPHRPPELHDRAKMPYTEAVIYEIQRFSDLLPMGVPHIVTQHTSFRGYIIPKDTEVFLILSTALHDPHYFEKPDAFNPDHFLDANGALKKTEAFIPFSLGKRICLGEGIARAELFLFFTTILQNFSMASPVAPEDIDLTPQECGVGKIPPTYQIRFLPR
Description: CYP inhibition in liver microsomes. […] Samples were analyzed for metabolite formation by LC-MS/MS. The results were expressed using the peak area ratio of analyte to internal standard, based on the calibration curves.
Where Range=fitted uninhibited value, s=slope factor, x=inhibitor concentration, y=% control activity.

NCI 60 cell-line screen = system: NCI 60 cell-line screen; design: method as in PMID 20876793, PMID 21285984; details: read-out: IC50, anticancer activity, cited from earlier work
tumor = details: mice; cited from earlier work
[1] = Stability in human plasma
[2] = Phase I, cytochrome P450-mediated human liver microsome metabolism; details: 0.5 µM, human liver microsomes

For COC1C=CC=C(C)C(=O)NC2=CC(=O)C(NCCCCCC[P+](c3ccccc3)(c3ccccc3)c3ccccc3)=C(CC(C)CC(OC)C(O)C(C)C=C(C)C1OC(N)=O)C2=O.F[P-](F)(F)(F)(F)F (centres unmarked) [Gamitrinib], the “Papp Efflux Ratio (ER)” value (Caco-2 intestinal cells) was 5.77, the “Papp, A>B” value (Caco-2 intestinal cells) was 0.19 ×10⁻⁶ cm/s and the “Papp, B>A” value (Caco-2 intestinal cells) was 1.094 ×10⁻⁶ cm/s. For the same compound, the “Pexact Efflux Ratio” value (Caco-2 intestinal cells) was 5.54, the “Pexact,A>B” value (Caco-2 intestinal cells) was 0.197 ×10⁻⁶ cm/s and the “Pexact,B>A” value (Caco-2 intestinal cells) was 1.092 ×10⁻⁶ cm/s. The IC50 (CYP2B6) was 16 µM, the IC50 (NCI 60 cell-line screen; NCI 60 cell-line screen, all lines) was 0.16 to 29 µM and the IC50 (NCI 60 cell-line screen; breast adenocarcinoma cell lines) was 0.16 to 3.3 µM. The IC50 (NCI 60 cell-line screen; colon adenocarcinoma cell lines) was 0.35 to 29 µM, the IC50 (NCI 60 cell-line screen; melanoma cell lines) was 0.36 to 2.7 µM and the therapeutically effective dose (tumor) was 10 mg/kg. The average recovery [1] was 82.8 ± 3%, the “stability in human plasma” value [1] was 91.4% and the “elimination rate constant (k)” value [2] was 0.041. For the same compound, the “half-life (t½)” value [2] was 16.7 min and the “intrinsic clearance (CLint)” value [2] was 3.30 mL/min/g.
